Measurements published in patent publication US20180169021A1, “RANOLAZINE MULTIPLE COMPRESSED TABLETS” (INTERQUIM, S.A., priority 2015, published 2018).
Converted amounts (≈) assume the structure as drawn. Read-outs that look alike come from different tables or passages of the source.

Experiments:
[1] = cited from earlier work
[2] = Dissolution in time of 500 mg ranolazine compressed into tablets, 900 mL aqueous media, paddle 100 rpm (FIG. 1); format: physicochemical; settings: 100% ranolazine tablet
Source text: As shown in the previous table, ranolazine is much more soluble at acidic pH than in neutral or basic pH.

[3] = quoted from WO0166093 A2; cited from earlier work

Question: Which Solubility ([1]; Solution pH 4.81) does the source give for COc1ccccc1OCC(O)CN1CCN(CC(=O)Nc2c(C)cccc2C)CC1 (centres unmarked) [Ranolazine, N-(2,6-dimethylphenyl)-2-(4-(2-hydroxy-3-(2-methoxyphenoxy)propyl)piperazin-1-yl)acetamide] here?
Answer: 161000 µg/mL (≈ 377 mM)

Question: What about the “USP Solubility Class” value ([1]; Solution pH 4.81) of the same compound?
Answer: Freely Soluble

Question: What about the Solubility ([1]; Solution pH 4.89) of the same compound?
Answer: 73800 µg/mL (≈ 173 mM)

Question: What about the “USP Solubility Class” value ([1]; Solution pH 4.89) of the same compound?
Answer: Soluble

Question: What about the Solubility ([1]; Solution pH 4.90) of the same compound?
Answer: 76400 µg/mL (≈ 179 mM)

Question: What about the “USP Solubility Class” value ([1]; Solution pH 4.90) of the same compound?
Answer: Soluble

Question: And the Solubility ([1]; Solution pH 5.04)?
Answer: 49400 µg/mL (≈ 116 mM)

Question: What about the “USP Solubility Class” value ([1]; Solution pH 5.04) of the same compound?
Answer: Soluble

Question: And the Solubility ([1]; Solution pH 5.35)?
Answer: 16700 µg/mL (≈ 39.1 mM)

Question: And the “USP Solubility Class” value ([1]; Solution pH 5.35)?
Answer: Sparingly Soluble

Question: What about the Solubility ([1]; Solution pH 5.82) of the same compound?
Answer: 5480 µg/mL (≈ 12.8 mM)

Question: And the “USP Solubility Class” value ([1]; Solution pH 5.82)?
Answer: Slightly soluble

Question: What about the Solubility ([1]; Solution pH 6.46) of the same compound?
Answer: 1630 µg/mL (≈ 3.81 mM)

Question: And the “USP Solubility Class” value ([1]; Solution pH 6.46)?
Answer: Slightly soluble

Question: What about the Solubility ([1]; Solution pH 6.73) of the same compound?
Answer: 830 µg/mL (≈ 1.94 mM)

Question: What about the “USP Solubility Class” value ([1]; Solution pH 6.73) of the same compound?
Answer: Very slightly soluble

Question: What about the Solubility ([1]; Solution pH 7.08) of the same compound?
Answer: 390 µg/mL (≈ 0.912 mM)

Question: And the “USP Solubility Class” value ([1]; Solution pH 7.08)?
Answer: Very slightly soluble

Question: And the Solubility ([1]; Solution pH 7.59*)?
Answer: 240 µg/mL (≈ 0.561 mM)

Question: And the “USP Solubility Class” value ([1]; Solution pH 7.59*)?
Answer: Very slightly soluble

Question: What about the Solubility ([1]; Solution pH 7.79) of the same compound?
Answer: 170 µg/mL (≈ 0.398 mM)

Question: And the “USP Solubility Class” value ([1]; Solution pH 7.79)?
Answer: Very slightly soluble

Question: And the Solubility ([1]; Solution pH 12.66)?
Answer: 180 µg/mL (≈ 0.421 mM)

Question: And the “USP Solubility Class” value ([1]; Solution pH 12.66)?
Answer: Very slightly soluble

Question: What about the Solubility ([1]; low pH that occurs in the stomach, quoted from WO0166093 A2) of the same compound?
Answer: relatively high

Question: What about the “Time until all the ranolazine is dissolved” value ([2]; pH 1 (0.1 M HCl)) of the same compound?
Answer: less than 30 minutes

Question: And the Ranolazine dissolved ([2]; pH 6.8, 30 minutes)?
Answer: around 63%

Question: And the Extent of dissolution ([2]; pH 6.8, 12 hours)?
Answer: not yet fully dissolved

Question: What about the Plasma half-life [3] of the same compound?
Answer: relatively short
